This test has as its target T1, human ALK5 (Homo sapiens, UniProt P36897).
T1 sequence (P36897 162-503): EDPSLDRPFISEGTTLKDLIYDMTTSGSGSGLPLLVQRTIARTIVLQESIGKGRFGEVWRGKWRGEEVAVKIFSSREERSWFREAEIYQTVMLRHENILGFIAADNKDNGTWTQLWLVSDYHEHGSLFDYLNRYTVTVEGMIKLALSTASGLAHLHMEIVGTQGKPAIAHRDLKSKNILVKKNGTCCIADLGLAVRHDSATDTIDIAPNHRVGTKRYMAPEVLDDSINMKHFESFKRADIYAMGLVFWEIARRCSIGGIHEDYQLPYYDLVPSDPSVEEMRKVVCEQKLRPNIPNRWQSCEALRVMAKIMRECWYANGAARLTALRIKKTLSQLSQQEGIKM
Description: ALK5 Enzyme Assay 2 (fluorescence polarisation probe displacement). Format: binding. The arrangement: 6His tagged human ALK5 (residues162-503) was grown and purified from insect cells; 6His; made in house; host or cells: insect cells. Particulars: read-out: EAA2: activity (μM) using Enzyme Assay 2. The procedure:
The ability of a compound to bind and inhibit ALK5 can be measured by its capacity to displace a probe molecule from recombinant ALK5 in an in vitro assay. Provided the probe molecule is derivatised with a fluorescent probe or is fluorescent itself, the binding affinity can be measured using Fluorescence Polarisation (FP). […] Assay measurements were performed in 50 mM HEPES pH7.4, 10 mM MgCl2, 1 mM DTT, 0.01% CHAPS in a final assay volume of 12 μl. Briefly 6 μl of ALK5 protein, final concentration of 3 μg/mL, was added to each well of a 384 well assay plate containing 12 nL of each concentration of test compound dissolved in DMSO. 6 μL of a solution containing an ALK5 FP probe ((2Z)-3-(6-{4-[2-({4-[(6-chloro[1,3]dioxolo[4,5-b]pyridin-7-yl)amino]-5-(1-methylethoxy)quinazolin-7-yl}oxy)ethyl]piperazin-1-yl}-6-oxohexyl)-2-[(2E,4E)-5-(3-ethyl-1,1-dimethyl-6,8-disulfo-1H-benzo[e]indolium-2-yl)penta-2,4-dien-1-ylidene]-1,1-dimethyl-6-sulfo-2,3-dihydro-1H-benzo[e]indole-8-sulfonate), final concentration 50 nM, and ATP, final concentration 1 μM.
(In general: Fluorescence polarisation rises when a labelled molecule tumbles more slowly, as on binding a larger partner.)
On to `Cc1ccc(Oc2ccnc(Nc3ccc(CO)cc3)c2)c(-c2ccco2)n1` [Example 163, [4-({4-[2-(Furan-2-yl)-6-methylpyridin-3-yl]oxypyridin-2-yl}-amino)phenyl]methanol], for which the IC50 was 0.00528 µM.
The same measure for `Cc1ccc(Oc2ccnc(Nc3ccc(S(=O)(=O)NCCN4CCN(C)CC4)cc3)c2)c(C)n1` [Example 133, 4-{[4-(2,6-Dimethylpyridin-3-yl)oxypyridin-2-yl]amino}-N-[2-(4-methylpiperazin-1-yl)ethyl]benzenesulfonamide]: 0.0932 µM.
Turning to `Cc1ccc(Oc2ccnc(Nc3ccc(S(C)(=O)=O)cc3)c2)c(C)n1` [Example 124, 4-(2,6-Dimethylpyridin-3-yl)oxy-N-(4-methylsulfonylphenyl)-pyridin-2-amine], the IC50 worked out at 0.077 µM.
`Cc1ccc(Oc2ccnc(Nc3ccc(S(=O)(=O)NCCN4CC[C@H](F)C4)cc3)c2)c(C)n1` [Example 137]: the IC50 was 0.163 µM.
The same measure for `Cc1ccc(Oc2ccnc(Nc3ccc(S(N)(=O)=O)cc3)c2)c(-c2ccco2)n1` [Example 160, 4-({4-[2-(Furan-2-yl)-6-methylpyridin-3-yl]oxypyridin-2-yl}-amino)benzenesulfonamide]: 0.0128 µM; for `Cc1ccc(Oc2ccnc(Nc3cccc(NS(C)(=O)=O)c3)c2)c(C)n1` [Example 128, N-(3-{[4-(2,6-Dimethylpyridin-3-yl)oxypyridin-2-yl]amino}-phenyl)methanesulfonamide]: 0.0321 µM; for `COc1cc(Nc2cc(Oc3ccc(C)nc3-c3cccnc3)ccn2)cc(OC)c1OC` [Example 172, 4-(6-Methyl-2,3′-bipyridin-3-yloxy)-N-(3,4,5-trimethoxyphenyl)-pyridin-2-amine]: 0.061 µM.
The same measure for `Cc1ccc(Oc2ccnc(Nc3ccc(CC#N)cc3)c2)c(-c2ccccn2)n1` [Example 144, 2-(4-{[4-(6-Methyl-2-pyridin-2-ylpyridin-3-yl)oxypyridin-2-yl]-amino}phenyl)acetonitrile]: 0.0276 µM; for `COc1cc(Nc2cc(Oc3ccc(C)nc3-c3ccco3)ccn2)cc(OC)c1OC` [Example 165, 4-[2-(Furan-2-yl)-6-methylpyridin-3-yloxy]-N-(3,4,5-trimethoxy-phenyl)pyridin-2-amine]: 0.0126 µM.
As for `Cc1ccc(Oc2ccnc(Nc3cccc(CN4CCN(C(=O)CC(N)=O)CC4)c3)c2)c(C)n1` [Example 187, 3-{4-[(3-{[4-(2,6-Dimethylpyridin-3-yl)oxypyridin-2-yl]amino}phenyl)methyl]piperazin-1-yl}-3-oxopropanamide], the IC50 stood at 0.0232 µM.
The same measure for `Cc1ccc(Oc2ccnc(Nc3ccc(CO)cc3)c2)c(C)n1` [Example 154, (4-{[4-(2,6-Dimethylpyridin-3-yl)oxypyridin-2-yl]amino}phenyl)-methanol]: 0.0197 µM; for `COc1ccc(-c2nc(C)ccc2Oc2ccnc(Nc3cc(OC)c(OC)c(OC)c3)c2)cc1` [Example 168, 4-[2-(4-Methoxyphenyl)-6-methylpyridin-3-yl-oxy]-N-(3,4,5-trimethoxyphenyl)pyridin-2-amine]: 0.0228 µM.
Turning to `CCn1nccc1Nc1cc(Oc2ccc(C)nc2C)ccn1` [Example 88, 4-[(2,6-Dimethylpyridin-3-yl)oxy]-N-(1-ethyl-1H-pyrazol-5-yl)-pyridin-2-amine], the IC50 is 0.205 µM.
Regarding `Cc1cc(Oc2ccnc(Nc3cccc(NS(C)(=O)=O)c3)c2)c(-c2ccccn2)nc1C` [Example 76, N-(3-{[4-(5,6-Dimethyl-2-pyridin-2-ylpyridin-3-yl)oxypyridin-2-yl]-amino}phenyl)methanesulfonamide], the IC50 was 0.0148 µM.
For the molecule `CC(=O)NS(=O)(=O)c1ccc(Nc2cc(Oc3ccc(C)nc3C)ccn2)cc1` [Example 107, N-{4-[4-(2,6-Dimethylpyridin-3-yloxy)pyridin-2-ylamino]phenyl-sulfonyl}acetamide], the IC50 worked out at 0.592 µM.
Regarding `Cc1ccc(Oc2ccnc(Nc3cccc(C(=O)N4CCN(CC(N)=O)CC4)c3)c2)c(C)n1` [Example 69, 2-[4-(3-{[4-(2,6-Dimethylpyridin-3-yl)oxypyridin-2-yl]amino}-benzoyl)piperazin-1-yl]acetamide], the IC50 is 0.0827 µM.
The value for `Cc1cc(Oc2ccnc(Nc3cc(CO)cc(S(N)(=O)=O)c3)c2)c(-c2ccccn2)nc1C` [Example 87, 3-{[4-(5,6-Dimethyl-2-pyridin-2-ylpyridin-3-yl)oxypyridin-2-yl]-amino}-5-(hydroxymethyl)benzenesulfonamide] was 0.0731 µM.
In the case of `Cc1ccc(Oc2ccnc(Nc3ccc(S(=O)(=O)Nc4ccccn4)cc3)c2)c(C)n1` [Example 106, 4-[4-(2,6-Dimethylpyridin-3-yloxy)pyridin-2-ylamino]-N-(pyridin-2-yl)benzenesulfonamide], the IC50 came to 0.527 µM.
The same measure for `Cc1ccc(Oc2ccnc(Nc3cccc(O)c3)c2)c(C)n1` [Example 126, 3-{[4-(2,6-Dimethylpyridin-3-yl)oxypyridin-2-yl]amino}phenol]: 0.0377 µM; for `C#CC(C)(C)NC(=O)c1cccc(Nc2cc(Oc3cc(C)c(C)nc3-c3ccccn3)ccn2)c1` [Example 103, 3-{[4-(5,6-Dimethyl-2-pyridin-2-ylpyridin-3-yl)oxypyridin-2-yl]-amino}-N-(2-methylbut-3-yn-2-yl)benzamide]: 0.0375 µM; for `Cc1ccc(Oc2ccnc(Nc3ccc(C(N)=O)cc3)c2)c(-c2ccc(F)cc2)n1` [Example 157, 4-({4-[2-(4-Fluorophenyl)-6-methylpyridin-3-yl]oxypyridin-2-yl}-amino)benzamide]: 0.0474 µM.
Consider `CC(=O)Nc1ccc(Nc2cc(Oc3ccc(C)nc3C)ccn2)cc1` [Example 123, N-(4-{[4-(2,6-Dimethylpyridin-3-yl)oxypyridin-2-yl]amino}-phenyl)acetamide], for which the IC50 is 0.0324 µM.
Turning to “3-{[4-(2,6-Dimethylpyridin-3-yl)oxypyridin-2-yl]amino}-N-(1-methylpiperidin-4-yl)benzamide [Example 70]”, the IC50 is 0.0323 µM.
As to `Cc1cc(Oc2ccnc(Nc3cccc(O)c3)c2)c(-c2ccccn2)nc1C` [Example 201, 3-{[4-(5,6-Dimethyl-2-pyridin-2-ylpyridin-3-yl)oxypyridin-2-yl]-amino}phenol], the IC50 was determined as 0.00393 µM.
With `Cc1ccc(Oc2ccnc(Nc3ccc(C(=O)NCCN4CCOCC4)cc3)c2)c(C)n1` [Example 220, 4-{[4-(2,6-Dimethylpyridin-3-yl)oxypyridin-2-yl]amino}-N-(2-morpholin-4-ylethyl)benzamide], the IC50 is 0.0675 µM.
The same measure for `Cc1ccc(Oc2ccnc(Nc3ccccn3)c2)c(-c2ccccc2)n1` [Example 150, 4-(6-Methyl-2-phenylpyridin-3-yl)oxy-N-pyridin-2-ylpyridin-2-amine]: 0.0047 µM; for `Cc1ccc(Oc2ccnc(Nc3cccc(CN4CCN(C)CC4)c3)c2)c(C)n1` [Example 193, 4-(2,6-Dimethylpyridin-3-yl)oxy-N-{3-[(4-methylpiperazin-1-yl)-methyl]phenyl}pyridin-2-amine]: 0.00427 µM.
The same measure for `Cc1ccc(Oc2ccnc(Nc3cccc(CN4CCN(CCN5CCNC5=O)CC4)c3)c2)c(C)n1` [Example 192, 1-(2-{4-[(3-{[4-(2,6-Dimethylpyridin-3-yl)oxypyridin-2-yl]-amino}phenyl)methyl]piperazin-1-yl}ethyl)imidazolidin-2-one]: 0.0155 µM; for `Cc1cc(Oc2ccnc(Nc3ccc(C(=O)NCCNC(=O)OC(C)(C)C)cc3)c2)c(-c2ccccn2)nc1C` [Example 198, tert-Butyl N-{2-[(4-{[4-(5,6-dimethyl-2-pyridin-2-ylpyridin-3-yl)oxypyridin-2-yl]amino}benzoyl)amino]ethyl}carbamate]: 0.0147 µM; for `Cc1ccc(Oc2ccnc(Nc3ccc(CO)cc3)c2)c(-c2ccccn2)n1` [Example 147, (4-{[4-(6-Methyl-2-pyridin-2-ylpyridin-3-yl)oxypyridin-2-yl]-amino}phenyl)methanol]: 0.00921 µM.
Regarding `Cc1ccc(Oc2ccnc(Nc3cccc(S(=O)(=O)Nc4ccccc4)c3)c2)c(C)n1` [Example 111, 3-{[4-(2,6-Dimethylpyridin-3-yl)oxypyridin-2-yl]amino}-N-phenylbenzenesulfonamide], the IC50 turned out to be 0.621 µM.
The value for `Cc1ccc(Oc2ccnc(Nc3cccc(CN4CCN(CC(=O)NC5CC5)CC4)c3)c2)c(C)n1` [Example 188, N-cyclopropyl-2-{4-[(3-{[4-(2,6-dimethylpyridin-3-yl)oxypyridin-2-yl]amino}phenyl)methyl]piperazin-1-yl}acetamide] was 0.00691 µM.
Consider `COCCNS(=O)(=O)c1ccc(Nc2cc(Oc3ccc(C)nc3C)ccn2)cc1` [Example 110, 4-{[4-(2,6-Dimethylpyridin-3-yl)oxypyridin-2-yl]amino}-N-(2-methoxyethyl)benzenesulfonamide], for which the IC50 came out at 0.203 µM.

These data come from US20090048269A1 (AstraZeneca AB, priority 2007, published 2009).
